Data taken from patent publication US5853742A, “Cosmetic compositions containing lactate dehydrogenase inhibitors” (priority 1997, dated 1998).
Where “and” joins values, the source holds several entries; their conditions need not be identical. Identical values can stand only once. Like-named read-outs stand apart in the source and are kept apart here.

Columns and labels:
[1] = system: Neonatal human dermal fibroblasts; test: Collagen synthesis (secreted procollagen 1 immunoassay); type: cell-based; details: 0.2 to 20 mM, 48 hours, serum-free medium
Protocol: Neonatal human dermal fibroblasts were purchased from Clonetics Corp., San Diego, Calif. All materials for cell culture were purchased from Life Technologies, N.Y. Cells were maintained in DMEM with 10% fetal bovine serum and used in passages 5-10, Confluent 96-well plates containing fibroblasts were treated with test materials (0.2 to 20 mM) in serum-free medium for 48 hours. […] This was carried out in a BioDot SF apparatus according to the manufacturer's instructions (BioRad Labs, CA) and the blot was developed using a Vectastain Kit (PK6104, Vector Labs, CA) as per the manufacturer's directions. Color intensity was quantitated using an Ultroscan XL densitometer (Pharmacia LKB). Fold increase was calculated as (density of treated)/untreated.

[2] = system: Normal human epidermal keratinocytes (NHEK); test: Keratinocyte proliferation (DNA content, fluorometric); type: cell-based
Protocol: Normal human epidermal keratinocytes (NHEK) derived from neonatal foreskin were used for all experiments. Media were purchased from Clonetics Corp., San Diego, Calif. Cell stocks frozen in passage 2 were grown in Keratinocyte Growth Medium (KGM) and passaged when 70-80% confluent. Cells were seeded in 96 well plates (Corning) at a density of 7500 cells/well in KGM. After 24 hours, cells were rinsed and dosed with test compounds in 200 μl of Keratinocyte Basal Medium (KBM). Plates were incubated for three days at 37° C., 5% CO2. Cell proliferation was estimated by assaying for DNA content by a fluorometric method described by Rago et al. (Analytical Biochemistry, 191:31-34, 1990). Medium was removed and cells were rinsed with phosphate buffered saline solution. 100 μl of sterile distilled water was added to each well and plates were frozen at -70° C. for one and a half hours. Plates were thawed for one hour at which time 100 μl of a 20 ug/ml solution of Bisbenzimide H33258 fluorochrome (Calbiochem Corp., La Jolla, Calif.) was added to each well. The fluorochrome was prepared just prior to use in 10 mM Tris, 1 mM EDTA, 4M NaCl, pH 7.4. Plates were read in a Millipore Cytofluor fluorescent plate reader to quantify DNA (excitation 360 nm, emission 460 nm). Percent increase over control was calculated from blank-corrected readings as (treated-untreated)/(untreated)*100%.

O=C(O)CC(=O)C(=O)O [Oxaloacetate]
Maximum fold over Control (collagen synthesis) [1]: 3.0 fold
activation at 2 µM ([2]; Homo sapiens, NHEK, 72 h, read-out: % Increase Over Control (keratinocyte proliferation), Table 9, oxaloacetate 0.002 mM): 11%
activation at 20 µM ([2]; Homo sapiens, NHEK, 72 h, read-out: % Increase Over Control (keratinocyte proliferation), Table 9, oxaloacetate 0.02 mM): 15%
activation at 80 µM ([2]; Homo sapiens, NHEK, 72 h, read-out: % Increase Over Control (keratinocyte proliferation), Table 9, oxaloacetate 0.08 mM): 56%
activation at 200 µM ([2]; Homo sapiens, NHEK, 72 h, read-out: % Increase Over Control (keratinocyte proliferation), Table 9, oxaloacetate 0.2 mM): 22%
activation at 2500 µM ([2]; Homo sapiens, NHEK, 72 h, read-out: % Increase Over Control (keratinocyte proliferation), Table 9, oxaloacetate 2.5 mM): 40%
activation at 5000 µM ([2]; Homo sapiens, NHEK, 72 h, read-out: % Increase Over Control (keratinocyte proliferation), Table 9, oxaloacetate 5.0 mM): 35%
activation at 20000 µM ([2]; Homo sapiens, NHEK, 72 h, read-out: % Increase Over Control (keratinocyte proliferation), Table 9, oxaloacetate 20 mM): 44%
% Increase Over Control (keratinocyte proliferation) ([2]; Table 9, oxaloacetate 0.02 mM): 30%
% Increase Over Control (keratinocyte proliferation) ([2]; Table 9, oxaloacetate 0.2 mM): 20%
% Increase Over Control (keratinocyte proliferation) ([2]; Table 9, oxaloacetate 2.5 mM): 37%
% Increase Over Control (keratinocyte proliferation) ([2]; Table 9, oxaloacetate 5.0 mM): 52%

NC(=O)C(=O)O [Oxamate]
Maximum fold over Control (collagen synthesis) [1]: 1.4 fold
activation at 25 µM ([2]; Homo sapiens, NHEK, 72 h, Table 3, oxamate 0.025 mM, read-out: % Increase Over Control (keratinocyte proliferation)): 20%
activation at 313 µM ([2]; Homo sapiens, NHEK, 72 h, Table 3, oxamate 0.313 mM, read-out: % Increase Over Control (keratinocyte proliferation)): 18%
activation at 1250 µM ([2]; Homo sapiens, NHEK, 72 h, Table 3, oxamate 1.25 mM, read-out: % Increase Over Control (keratinocyte proliferation)): 28%
activation at 20000 µM ([2]; Homo sapiens, NHEK, 72 h, Table 3, oxamate 20 mM, read-out: % Increase Over Control (keratinocyte proliferation)): 0%
% Increase Over Control (keratinocyte proliferation) ([2]; Table 3, oxamate 0.025 mM): 19%
% Increase Over Control (keratinocyte proliferation) ([2]; Table 3, oxamate 0.313 mM): 32%
% Increase Over Control (keratinocyte proliferation) ([2]; Table 3, oxamate 1.25 mM): 24% and 40%
% Increase Over Control ([2]; Table 11, oxamate 2.5 mM, pyruvate 0): 0%
% Increase Over Control ([2]; Table 11, oxamate 5.0 mM, pyruvate 0): 0%
% Increase Over Control ([2]; Table 11, oxamate 10 mM, pyruvate 0): 0%
% Increase Over Control ([2]; Table 11, oxamate 15 mM, pyruvate 0): 0%
% Increase Over Control ([2]; Table 11, oxamate 20 mM, pyruvate 0): 0%
% Increase Over Control ([2]; Table 12, oxamate 0.313 mM, malate 0): 32%
% Increase Over Control ([2]; Table 12, oxamate 0.625 mM, malate 0): 19%
% Increase Over Control ([2]; Table 12, oxamate 1.25 mM, malate 0): 40%
% Increase Over Control ([2]; Table 12, oxamate 2.5 mM, malate 0): 25%
% Increase Over Control ([2]; Table 12, oxamate 5.0 mM, malate 0): 20%
% Increase Over Control ([2]; Table 12, oxamate 10 mM, malate 0): 0%
